Drawing on ChEMBL document CHEMBL1138402, “CCR5 receptor antagonists: discovery and SAR study of guanylhydrazone derivatives” (Bioorg Med Chem Lett, 2007), this text covers IC50 for 47 compounds.

One may read the IC50 as the midpoint of a concentration-inhibition curve. Read a low IC50 as greater potency.

Where only a bound is given, the exact number is not on record here.

Sequence of C-C chemokine receptor type 5 (P51681 whole entry): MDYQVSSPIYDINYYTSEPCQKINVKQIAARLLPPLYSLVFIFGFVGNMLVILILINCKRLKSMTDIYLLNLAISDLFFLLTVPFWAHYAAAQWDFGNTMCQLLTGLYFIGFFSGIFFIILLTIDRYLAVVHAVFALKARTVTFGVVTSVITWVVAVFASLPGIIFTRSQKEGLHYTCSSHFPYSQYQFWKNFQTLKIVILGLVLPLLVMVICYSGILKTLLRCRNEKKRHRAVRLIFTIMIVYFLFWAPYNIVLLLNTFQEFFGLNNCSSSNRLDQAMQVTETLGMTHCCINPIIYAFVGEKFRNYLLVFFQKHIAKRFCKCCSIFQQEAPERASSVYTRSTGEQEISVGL

This assay concerns the target C-C chemokine receptor type 5 (Homo sapiens, UniProt P51681). In words: Displacement of [125I]MIP1-alpha from human CCR5/CD4 expressed in HEK293 cells. In kind it is cell-based. On the technique in general: Loss of bound radioactivity is the signal in a displacement assay; it reports binding, not function.
`CN(C)Cc1cc(Br)ccc1OCc1ccc(Cl)cc1` displayed a half-maximal inhibitory concentration (IC50) of 600 nM.
As for `CCN(CC)Cc1cc(Br)ccc1OCc1ccc(Cl)cc1`, the IC50 came to 1400 nM.
For the compound `COc1ccc(COc2ccc(Br)cc2/C=N/NC(=N)N)cc1`, the IC50 came out at 700 nM.
The value for `N=C(N)N/N=C/c1cc(Br)ccc1OCc1ccc(OCc2ccccc2)cc1` was 2900 nM.
The value for `COc1ccc([N+](=O)[O-])cc1COc1ccc(Br)cc1/C=N/NC(=N)N` was 8700 nM; that for `N=C(N)N/N=C/c1cccc(Cl)c1OCc1ccc(Cl)cc1` was more than 30000 nM.
For `COc1cc(Br)cc(/C=N/NC(=N)N)c1OCc1ccc(Cl)cc1` the value was more than 30000 nM; for `COC(=O)c1cccc(COc2ccc(Br)cc2/C=N/NC(=N)N)c1`, 1600 nM; for `N=C(N)N/N=C/c1cc(Br)ccc1OCc1cccc(C(=O)O)c1`, 39000 nM.
Consider `Cc1ccc(COc2ccc(Br)cc2/C=N/NC(=N)N)cc1`, for which the 50% inhibitory concentration (IC50) worked out at 500 nM.
Take `Cc1cccc(COc2ccc(Br)cc2/C=N/NC(=N)N)c1`: the IC50 was determined as 1700 nM.
The compound `N=C(N)N/N=C/c1cc(Br)ccc1OCc1cccc2ccccc12` had an IC50 of 1100 nM.
For `C/C(=N/NC(=N)N)c1cc(Cl)ccc1OCc1ccc(Cl)cc1` the value was 8500 nM; for `CN(/N=C/c1cc(Br)ccc1OCc1ccc(Cl)cc1)C1=NCCN1`, 14000 nM; for `N=C(N)N/N=C/c1cc(Br)ccc1OCc1ccc(Br)cc1`, 600 nM.
`N#Cc1ccc(COc2ccc(Br)cc2/C=N/NC(=N)N)cc1` registered an IC50 of 480 nM.
The value for `N#Cc1cccc(COc2ccc(Br)cc2/C=N/NC(=N)N)c1` was 2000 nM.
`N=C(N)N/N=C/c1cc(Br)ccc1OCc1cccc([N+](=O)[O-])c1` gave an IC50 of 1700 nM.
Compound `N=C(N)N/N=C/c1cc(Cl)ccc1OCc1ccc(Cl)cc1` came in with an IC50 of 600 nM.
For `N=C(N)N/N=C/c1cc(F)ccc1OCc1ccc(Cl)cc1` the value was 3400 nM.
Turning to `N=C(N)N/N=C/c1cc(Cl)cc(Cl)c1OCc1ccc(Cl)cc1`, the IC50 was found to be 3100 nM.
For `N=C(N)N/N=C/c1cc(Br)ccc1OCc1ccccc1[N+](=O)[O-]` the value was 5700 nM; for `CC(C)(C)c1ccc(OCc2ccc(Cl)cc2)c(/C=N/NC(=N)N)c1`, more than 30000 nM; for `N#Cc1ccc(OCc2ccc(Cl)cc2)c(/C=N/NC(=N)N)c1`, 600 nM.
`N=C(N)N/N=C/c1ccc(Cl)cc1OCc1ccc(Cl)cc1` returned an IC50 of more than 30000 nM.
In turn, `C/C(=N\NC(=N)N)c1cc(Br)ccc1OCc1ccc(Cl)cc1` registered an IC50 of 200 nM.
Compound `COC(=O)c1ccc(COc2ccc(Br)cc2/C=N/NC(=N)N)cc1` returned an IC50 of 1300 nM.
`CCN(CC)c1ccc(OCc2ccc(Cl)cc2)c(/C=N/NC(=N)N)c1` returned an IC50 of more than 30000 nM.
Compound `COc1cc(Br)cc(/C(C)=N/NC(=N)N)c1OCc1ccc(C#N)cc1` showed an IC50 of 93 nM.
Turning to `CC/C(=N\NC(=N)N)c1cc(Br)cc(OC)c1OCc1ccc(Cl)cc1`, the IC50 is 400 nM.
In turn, `CC(C)C/C(=N\NC(=N)N)c1cc(Cl)ccc1OCc1ccc(F)cc1` showed an IC50 of more than 30000 nM.
In the case of `COC(=O)c1ccc(OCc2ccc(Cl)cc2)c(/C=N/NC(=N)N)c1`, the concentration for half-maximal inhibition (IC50) is more than 30000 nM.
The compound `N=C(N)N/N=C/c1cc(N)ccc1OCc1ccc(Cl)cc1` came in with an IC50 of more than 30000 nM.
In the case of `Clc1ccc(COc2ccc(Br)cc2CN2CCOCC2)cc1`, the half-inhibitory concentration (IC50) was 1000 nM.
On to `N=C(N)N/N=C/c1cc(Br)ccc1OCc1ccc(-c2ccccc2)cc1`, for which the IC50 stood at 1700 nM.
For the compound `N=C(N)N/N=C/c1cc(Br)ccc1OCc1ccc(F)cc1F`, the IC50 amounted to 3700 nM.
For `C/C(=N\NC(=N)N)c1cc(Cl)ccc1OCc1ccc(Cl)cc1`, the IC50 worked out at 140 nM.
Take `CCCC/C(=N\NC(=N)N)c1cc(Cl)ccc1OCc1ccc(F)cc1`: the IC50 was 4200 nM.
Take `Clc1ccc(COc2ccc(Br)cc2/C=N/NC2=NCCN2)cc1`: the IC50 was 750 nM.
Compound `N=C(N)N/N=C/c1cc(Br)ccc1OCc1ccc([N+](=O)[O-])cc1` registered an IC50 of 900 nM.
The value for `N=C(N)N/N=C/c1cc([N+](=O)[O-])ccc1OCc1ccc(Cl)cc1` was 1200 nM; that for `N=C(N)N/N=C/c1cccc(F)c1OCc1ccc(Cl)cc1` was more than 30000 nM.
In the case of `N=C(N)N/N=C/c1cc(Br)ccc1OCc1ccccc1`, the IC50 came out at 1900 nM.
Take `N=C(N)N/N=C/c1cc(Br)ccc1OCc1ccc(F)cc1`: the IC50 worked out at 800 nM.
On to `N=C(N)N/N=C/c1cc(Br)ccc1OCc1ccc(Cl)cc1`, for which the IC50 came to 840 nM.
As for `Clc1ccc(COc2ccc(Br)cc2/C=N/NC2=NCCCN2)cc1`, the IC50 came out at 2000 nM.
In turn, `N=C(N)N/N=C/c1ccccc1OCc1ccc(Cl)cc1` gave an IC50 of more than 30000 nM.
